Measurements as given in ChEMBL document CHEMBL5346879, “Identification of a short ACE2-derived stapled peptide targeting the SARS-CoV-2 spike protein” (Eur J Med Chem, 2023).
Where a SMILES comes first, the peptide text is derived from it. Bridges are numbered along the chain shown (N, C = ends). [ ]: non-standard residue; d: D form. S5 = C=CCCC[C@](C)(N)C(=O)O

Tests used:
[1] = Stability in human plasma assessed as peptide degradation at 200 ug/ml incubated for 48 hrs by LC-MS/MS analysis; format: ADME, cell-free; settings: at 200 µg/mL
[2] = target: Spike glycoprotein/Angiotensin-converting enzyme 2 (Severe acute respiratory syndrome coronavirus 2, UniProt P0DTC2); assay: Inhibition of SARS-CoV-2 spike protein RBD- human ACE2 interaction incubated for 1 hr by colorimetric ELISA assay
[3] = target: Spike glycoprotein/Angiotensin-converting enzyme 2 (Severe acute respiratory syndrome coronavirus 2) (UniProt Q9BYF1+P0DTC2); assay: Inhibition of SARS-CoV-2 spike protein RBD- human ACE2 interaction at 30 uM incubated for 1 hr by colorimetric ELISA assay relative to control

With H-HEAEDLFYQ-NH2 the Stability [1] was “Stable”.
For `CC(C)C[C@@H]1NC(=O)[C@H](CC(=O)O)NC(=O)[C@H](CCC(=O)O)NC(=O)[C@@](C)(NC(=O)[C@H](CCC(=O)O)NC(=O)[C@@H](N)Cc2c[nH]cn2)CCC/C=C\CCC[C@@](C)(C(=O)N[C@@H](Cc2ccc(O)cc2)C(=O)N[C@@H](CCC(N)=O)C(N)=O)NC1=O` (H-HE[S5]EDL[S5]YQ-NH2; staple (Z) 3-7), the IC50 [2] was 21 µM, the Stability [1] was “Stable” and the inhibition [3] was 55%.
